Converted amounts (≈) assume the structure as drawn. Counter-ions that a name gives are not always drawn.
Assays:
[1] = Intrinsic in-vitro skin permeability of TA-3090 at various pH conditions (side-by-side diffusion cell); format: in vitro ADME, hairless mouse; settings: for Papp: mouse, skin permeation rate/solubility, mean and SD, n=3
Method: (§1) TA-3090 skin permeability was determined using a freshly excised hairless mouse skin and a side-by-side type of diffusion cell (available from Crown Glass Co., Somerville, N.J.). About 2.5 cm×2.5 cm portion of freshly excised hairless mouse skin (5-7 week old, male), prepared as described in Example 4, was mounted between the two chambers of the side-by-side diffusion cell and securely clamped. Saturated solution (with some extra drug in suspension state) of TA-3090 free base in phosphate buffer solution maintained at a particular pH was introduced into the donor side (the side facing the stratum corneum). 5% Trycol® solution in normal saline, prepared as described in Example 4, was introduced in the receptor compartment (the side facing the dermis side of the skin). Both donor and receptor compartments were maintained at 37° C. by a thermostatically controlled circulating water bath. At predetermined time intervals (usually at 3, 6, 12 and 24 hours) the entire volume of the receptor solution was withdrawn and immediately replaced with the same volume of the fresh, drug-free Trycol® solution at 37° C. to maintain the sink condition. […] From the concentration profiles of TA-3090 in the receptor compartment, the flux (mcg/cm^2) of skin permeation was calculated using a computer program and then plotted as a function of time (hour). Slope of this line gave the value of skin permeation rate (mcg/cm^2 /hr).

[2] = once-a-day oral dose; background statement; cited from earlier work
calcium channel = settings: background statement; cited from earlier work
in vivo = settings: guinea pig, plasma, topical or ocular
[3] = Aqueous solubility of TA-3090 free base with 5% PEG 20 Oleyl ether; format: physicochemical; settings: with 5% PEG 20 Oleyl ether as solubilizer
Method: The aqueous solubility of TA-3090 free base was improved by the incorporation of 5% PEG 20 Oleyl ether as a solubilizer to maintain an effective sink condition required in the investigation, which simulates the biological sink achieved by hemoperfusion. […] Following this, the saline solution containing 5% w/w PEG 20 Oleyl ether (Trycol®) at 37° C. was introduced into the receptor compartment, which was thermostatically controlled at 37° C. by a circulating water bath.

[4] = Method: The model used is an in-vitro excised hairless mouse skin model which is known in the art. The permeation rates of TA-3090 through the excised skin were measured using a Franz diffusion cell.
In-vitro evaluation of transdermal patches was accomplished using an excised hairless mouse/Franz diffusion cell model (available from Crown Glass Company, Somerville, N.J.) as follows. Immediately following sacrifice by cervical dislocation (or by CO2 gas), a portion (about 3.5 cm×3.5 cm) of the full-thickness abdominal skin was carefully excised from the hairless mouse (5-7 week old, male). The dermal side of the skin was carefully cleaned of any adhering subcutaneous tissue and/or blood vessels. […]
At a predetermined time interval (usually 4, 8, 12 and 24 hours), the entire volume of the receptor solution was withdrawn and immediately replaced with the same volume of the fresh, drug-free Trycol solution at 37° C. to maintain the sink condition. The concentration of TA-3090 in the sample was determined by a sensitive HPLC method. From the concentration profiles of TA-3090 in the receptor compartment, the flux (mcg/cm^2) of skin permeation was calculated using a computer program and then plotted as a function of time (hour). […]

[5] = Solubility of TA-3090 in donor solution; format: physicochemical; settings: aqueous buffer, phosphate buffer, 37° C., mean and SD, n=3
Method: as §1

[6] = literature statement; cited from earlier work
[7] = Intrinsic in-vitro skin permeability of diltiazem (side-by-side diffusion cell); format: in vitro ADME, hairless mouse; settings: skin permeation rate/solubility, mean and SD, n=3
Method: About 2.5 cm×2.5 cm portion of freshly excised hairless mouse skin (5-7 week old, male) prepared as described in Example 4 above, was mounted between the two chambers of the side-by-side diffusion cell and securely clamped. […] 5% Trycol® solution in normal saline, prepared as described in Example 4 above, was introduced into the receptor compartment (the side facing the dermis side of the skin). Both donor and receptor compartments were maintained at 37° C. by a thermostatically controlled circulating water bath. At predetermined time intervals (usually at 3, 6, 12 and 24 hours) the entire volume of the receptor solution was withdrawn and immediately replaced with the same volume of fresh, drug-free Trycol® solution at 37° C. to maintain the […]. […] Slope of this line gave the value of skin permeation rate (mcg/cm^2 /hr).

Question: Which results are given for `COc1ccc([C@@H]2Sc3cc(Cl)ccc3N(CCN(C)C)C(=O)[C@@H]2OC(C)=O)cc1` [TA-3090, (+)(2S,3S)-3-acetoxy-8-chloro-5-(2-dimethylaminoethyl)-2,3-dihydro-2-(4-methoxyphenyl)-1,5-benzothiazepin-4-(5H)-one]?
Answer: Papp ([1]; donor side pH 5): 1.81 ×10⁻⁶ cm/s; Papp ([1]; donor side pH 7): 13.4 ×10⁻⁶ cm/s; Papp ([1]; donor side pH 9): 30.6 ×10⁻⁶ cm/s; Skin Permeation Rate ([1]; pH 5): 49.04 ± 8.76 mcg/cm^2 /hr; Skin Permeation Rate ([1]; pH 7): 29.39 ± 11.61 mcg/cm^2 /hr; Skin Permeation Rate ([1]; pH 9): 6.75 ± 1.54 mcg/cm^2 /hr; oral absorption [2]: incomplete oral absorption; vasodilating activity (calcium channel): potent vasodilating activity; concentration at 4 h (in vivo): 11.4 ± 4.09 ng/mL; concentration at 8 h (in vivo): 32.5 ± 4.56 ng/mL; concentration at 24 h (in vivo): 75.6 ng/mL; concentration at 48 h (in vivo): 71.1 ± 43.1 ng/mL; aqueous solubility [3]: improved; rate of administration from the transdermal delivery device [4]: 0.6 to 29.62 mcg/cm^2 /hr; solubility ([5]; donor side pH 5): 7730 ± 1130 µg/mL (≈ 17200 µM); solubility ([5]; donor side pH 7): 600 ± 20 µg/mL (≈ 1340 µM); solubility ([5]; donor side pH 9): 60 ± 4 µg/mL (≈ 134 µM)

Question: What does the source list for `COc1ccc([C@@H]2Sc3ccccc3N(CCN(C)C)C(=O)[C@@H]2OC(C)=O)cc1` [diltiazem HCl, diltiazem hydrochloride]?
Answer: permeability through skin / percutaneous absorption [6]: poor percutaneous absorption; Intrinsic Permeability ([7]; hydrochloride): 1.66 ± 0.43 (cm/hr) × 10^-5

Question: Which “Intrinsic Permeability” value [7] does the source give for `COc1ccc([C@@H]2Sc3ccccc3N(CCN(C)C)C(=O)[C@@H]2OC(C)=O)cc1` [diltiazem free base, diltiazem] here?
Answer: 186.96 ± 49.74 (cm/hr) × 10^-5
